Laboratory results reported in US5134125A, “Nutrient composition” (Kyowa Hakko Kogyo Co., Ltd., priority 1989, dated 1992).
Where a SMILES comes first, the peptide text is derived from it.

Experiments:
[1] = Hydrolysis of dipeptides in human plasma; assay type: in vitro ADME; settings: 37° C., 30 minutes; for Residual Rate: 10 mM dipeptide
Procedure: Each of the dipeptides shown in Table 1 below was added to 0.75 ml of plasma collected and prepared from human to give a concentration of 10 mM, followed by reaction at 37° C. for 30 minutes.

[2] = Change in concentration in blood of dipeptides administered to mice; assay type: in vivo, C3H/He mice; settings: tail vein, 250 μmoles/kg body weight, FIG. 1
Source text: γ-L-Glutamyl-L-glutamine and L-alanyl-L-glutamine were respectively administered to C3H/He mice (6 weeks of age, male, weighing 20 g) through the tail vein at a dose of 250 μmoles/kg body weight, and blood was collected intermittently. Five mice were used for each test group, and the results are shown by the mean ±SEM.

[3] = Influence of administered dipeptides on renal glutamine level; assay type: in vivo, C3H/He mice; settings: mice, tail vein; for Concentration of Glutamine in kidney: 250 γmoles/kg body weight, kidneys excised after 20 minutes, mean ±SEM, five mice
Procedure: γ-L-Glutamine-L-glutamine and L-alany-L-glutamine were respectively administered to C3H/He mice (6 weeks of age, male, weighing 20 g) through the tail vein at a dose of 250 γmoles/kg body weight, and after 20 minutes, the kidneys were excised. The glutamine level in the organ was compared to that prior to the administration of the dipeptides. Five mice were used for each test group, and the results are shown by the mean ±SEM.

[4] = Hydrolysis of dipeptides in mouse plasma; assay type: in vitro ADME, C3H/He mice; settings: 3.13 mM, 37° C.; for Residual Rate: mean of five mice
Procedure: Each of the dipeptides shown in Table 2 below was added to 0.05 ml of plasma collected and prepared from C3H/He mice (6 weeks of age, male, weighing 20 g) to give a concentration of 3.13 mM, followed by reaction at 37° C. for 2, 5, 10 and 20 minutes. Five mice were used for each test group, and the results are shown by the mean value.

[5] = Storage stability test at 40° C. for 30 days; assay type: physicochemical; settings: in solution
[6] = Stability in solution under sterilizing conditions; assay type: physicochemical; settings: solution 10 mM, pH 6.5, 110° C. for 60 minutes
γ-glutamyl transferase = settings: J. Biol. Chem., vol. 253, No. 6, p. 1799-1806 (1978); cited from earlier work
[7] = Stability in nutrient preparations under heat sterilization; assay type: physicochemical
[8] = tested on: γ-glutamyl cyclotransferase; settings: J. Biol. Chem., vol. 253, No. 6, p. 1799-1806 (1978); cited from earlier work
[9] = target: T1, γ-GTP (γ-glutamyl transferase) (Sus scrofa, UniProt P20735); test: Hydrolysis of dipeptides by γ-GTP; assay type: biochemical; settings: 5 mM dipeptide, Tris-HCl buffer 50 mM pH 7.0, γ-GTP from swine kidney, 37° C., 120 minutes
T1 construct: γ-GTP prepared from swine kidney was added to the solution; from tissue; host or cells: swine kidney
T1 sequence (P20735 380-568 limits assumed): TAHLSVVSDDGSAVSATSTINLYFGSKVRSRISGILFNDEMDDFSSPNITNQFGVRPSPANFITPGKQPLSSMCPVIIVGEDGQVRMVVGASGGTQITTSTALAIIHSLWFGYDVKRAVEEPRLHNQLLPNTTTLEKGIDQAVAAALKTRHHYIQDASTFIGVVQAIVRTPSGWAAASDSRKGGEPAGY
T1 sequence (P20735 1-379 limits assumed): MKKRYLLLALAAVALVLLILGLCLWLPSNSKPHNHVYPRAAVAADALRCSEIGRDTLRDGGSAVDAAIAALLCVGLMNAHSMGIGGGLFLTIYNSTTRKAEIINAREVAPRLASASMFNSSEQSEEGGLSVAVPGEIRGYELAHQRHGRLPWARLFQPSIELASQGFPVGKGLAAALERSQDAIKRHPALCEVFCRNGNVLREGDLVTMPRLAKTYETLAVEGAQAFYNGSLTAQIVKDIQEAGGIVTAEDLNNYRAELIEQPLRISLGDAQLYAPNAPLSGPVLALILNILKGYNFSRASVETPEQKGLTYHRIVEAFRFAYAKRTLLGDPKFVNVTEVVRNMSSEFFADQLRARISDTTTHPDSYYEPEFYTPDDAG

SMILES	Residual Rate [1] [%]	Appearance (release) of glutamine in blood [2]	Disappearance of the dipeptide from blood [2]	Concentration of Glutamine in kidney [3] [μmole/g wet weight]	Residual Rate ([4]; 2 minutes) [%]	Residual Rate ([4]; 5 minutes) [%]	Residual Rate ([4]; 10 minutes) [%]	Residual Rate ([4]; 20 minutes) [%]	Decomposition in storage stability test [5]	Residual Rate after Storage at 40° C. for 30 days [5] [%]	Decomposition under sterilizing conditions [6]	Residual Rate after Sterilization [6] [%]	also measured
NCC(=O)N[C@@H](CCC(N)=O)C(=O)O [Glycyl-L-glutamine] (H-Gly-Gln-OH)	84	–	–	–	–	–	–	–	–	–	–	–	–
C[C@H](N)C(=O)N[C@@H](CCC(N)=O)C(=O)O [L-Alanyl-L-glutamine, reference compound] (H-Ala-Gln-OH)	74	rapid release of glutamine into the blood	disappeared extremely rapidly	1.14 ± 0.09	87	62	24	11	–	–	–	–	–
NC(=O)CC[C@H](NC(=O)[C@@H](N)CC(=O)O)C(=O)O [L-Aspartyl-L-glutamine] (H-Asp-Gln-OH)	58	–	–	–	–	–	–	–	–	–	–	–	–
NC(=O)CC[C@H](N)C(=O)O [L-Glutamine, reference compound]	–	–	–	–	–	–	–	–	29%	71	60%	40	–
NC(=O)CC[C@H](NC(=O)CC[C@H](N)C(=O)O)C(=O)O [γ-L-Glutamyl-L-glutamine]	99	slow	slow	1.57 ± 0.12	100	100	100	100	not decomposed at all	100	not decomposed at all	100	Substrate for γ-glutamyl transferase (γ-glutamyl transferase): effective substrate; Hydrolysis in human plasma ([1]; 10 mM): substantially free of hydrolysis; Stability under the sterilizing conditions ([7]; Example 2 jelly-like nutrient preparation, heated at 100° C. for 30 minutes): remained stable; Stability under the sterilizing conditions ([7]; Example 3 composition for oral nutrient supplementation, 110° C. for 60 minutes): remained stable; Substrate for γ-glutamyl cyclotransferase [8]: effective substrate; Hydrolysis by γ-GTP [9]: almost completely hydrolyzed; Renal glutamine level ([3]; 20 minutes after administration, compared to prior to administration): significantly high renal glutamine level; Hydrolysis in mouse plasma ([4]; up to 20 minutes): not hydrolyzed at all
